Earlier results on 1 compound are cited in PMC11575912 (Journal of Clinical Oncology, 2024).

The subject of series [1] is CYP. The following applies: in vitro or in the human mass balance study; ref unpublished data on file.
For series [2] the following is noted: once daily.
The subject of series [3] is p110α over the β, δ, and γ isoforms. To be noted: biochemical assays.

Structures are written as SMILES.

For `C[C@H](Nc1ccc2c(c1)OCCn1cc(N3C(=O)OC[C@H]3C(F)F)nc1-2)C(N)=O` [inavolisib], the CYP-mediated metabolism entry in series [1] is listed as “did not undergo extensive CYP-mediated metabolism”. Further, the “Single-agent maximum tolerable dose” value in series [2] was 9 mg. For the same compound, in series [3], the “Selectivity for p110α over the β, δ, and γ isoforms” value is above 300 fold.
